Laboratory results as given in US11053218B2, “3-(1-oxoisoindolin-2-yl)piperidine-2,6-dione derivatives and uses thereof” (Novartis AG, priority 2017, dated 2021).
Read-outs that look alike come from different tables or passages of the source.

Legend:
Assay type in all cases: cell-based
IKZF2 = IKZF2 (Homo sapiens, UniProt Q96SW2+Q9UKS7); assay: Prolabel quantification of IKZF2 protein levels in 293GT cells
GSPT1 = GSPT1 (Homo sapiens, UniProt P15170+Q96SW2); assay: Prolabel quantification of GSPT1 protein levels in 293GT cells; conditions: Prolabel assay, read-out: GSPT1 EC50
Sequence of GSPT1 (P15170 whole entry, the tested form may be a part): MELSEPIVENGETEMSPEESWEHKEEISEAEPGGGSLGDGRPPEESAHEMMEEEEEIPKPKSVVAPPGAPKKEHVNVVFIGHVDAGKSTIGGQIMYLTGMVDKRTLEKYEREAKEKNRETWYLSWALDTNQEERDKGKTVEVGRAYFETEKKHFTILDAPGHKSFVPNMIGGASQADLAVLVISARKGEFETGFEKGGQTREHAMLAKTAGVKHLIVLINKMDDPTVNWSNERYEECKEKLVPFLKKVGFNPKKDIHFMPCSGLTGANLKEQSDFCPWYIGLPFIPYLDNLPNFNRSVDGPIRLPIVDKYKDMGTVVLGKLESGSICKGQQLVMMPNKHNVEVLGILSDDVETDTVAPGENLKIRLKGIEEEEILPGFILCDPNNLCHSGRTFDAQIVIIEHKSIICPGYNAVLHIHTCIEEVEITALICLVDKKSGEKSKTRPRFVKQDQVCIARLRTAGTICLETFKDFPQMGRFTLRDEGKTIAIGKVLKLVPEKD
Sequence of GSPT1 (Q96SW2 whole entry, the tested form may be a part): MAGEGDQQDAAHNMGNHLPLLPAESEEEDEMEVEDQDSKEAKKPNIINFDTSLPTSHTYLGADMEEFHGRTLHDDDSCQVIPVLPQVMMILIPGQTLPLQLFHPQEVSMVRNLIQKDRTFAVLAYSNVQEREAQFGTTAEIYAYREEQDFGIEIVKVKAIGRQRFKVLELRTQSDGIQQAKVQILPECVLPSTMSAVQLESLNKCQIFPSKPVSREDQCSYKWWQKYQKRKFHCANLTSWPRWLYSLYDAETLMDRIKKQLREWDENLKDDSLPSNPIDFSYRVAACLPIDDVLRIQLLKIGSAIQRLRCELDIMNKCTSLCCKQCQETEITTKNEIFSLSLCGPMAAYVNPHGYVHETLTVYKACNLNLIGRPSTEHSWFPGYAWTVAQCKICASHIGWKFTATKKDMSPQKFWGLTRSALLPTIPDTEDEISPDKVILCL
Sequence of GSPT1 (Q16531 whole entry partner, the tested form may be a part): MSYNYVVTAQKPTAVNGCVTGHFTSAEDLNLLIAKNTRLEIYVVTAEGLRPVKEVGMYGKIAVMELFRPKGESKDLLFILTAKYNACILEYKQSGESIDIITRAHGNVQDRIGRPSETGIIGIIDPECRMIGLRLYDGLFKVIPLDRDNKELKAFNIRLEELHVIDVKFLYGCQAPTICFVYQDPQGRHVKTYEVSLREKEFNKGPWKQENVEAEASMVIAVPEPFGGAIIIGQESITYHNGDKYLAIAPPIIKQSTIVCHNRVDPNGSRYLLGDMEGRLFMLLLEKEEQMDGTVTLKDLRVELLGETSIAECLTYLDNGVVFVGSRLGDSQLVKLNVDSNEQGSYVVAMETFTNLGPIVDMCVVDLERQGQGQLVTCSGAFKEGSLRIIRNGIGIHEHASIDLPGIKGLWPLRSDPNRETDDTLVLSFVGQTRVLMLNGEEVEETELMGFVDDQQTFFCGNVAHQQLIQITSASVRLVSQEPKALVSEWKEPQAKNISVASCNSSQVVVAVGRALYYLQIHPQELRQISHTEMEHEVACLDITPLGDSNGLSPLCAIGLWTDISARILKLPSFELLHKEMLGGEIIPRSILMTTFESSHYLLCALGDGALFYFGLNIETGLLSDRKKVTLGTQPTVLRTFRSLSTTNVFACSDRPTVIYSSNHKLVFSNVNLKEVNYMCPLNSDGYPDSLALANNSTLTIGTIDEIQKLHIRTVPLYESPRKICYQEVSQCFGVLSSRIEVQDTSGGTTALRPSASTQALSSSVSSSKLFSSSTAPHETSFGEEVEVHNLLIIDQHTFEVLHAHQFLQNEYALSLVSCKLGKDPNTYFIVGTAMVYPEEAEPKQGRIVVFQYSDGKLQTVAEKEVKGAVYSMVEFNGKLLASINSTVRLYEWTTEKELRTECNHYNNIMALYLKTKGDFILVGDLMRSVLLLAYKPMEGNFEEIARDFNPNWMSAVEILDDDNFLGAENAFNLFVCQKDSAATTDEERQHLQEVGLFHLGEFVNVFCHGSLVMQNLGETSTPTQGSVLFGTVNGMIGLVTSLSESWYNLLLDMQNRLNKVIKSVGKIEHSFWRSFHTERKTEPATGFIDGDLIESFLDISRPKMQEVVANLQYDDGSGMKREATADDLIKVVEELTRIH
Description: The Prolabel system from DiscoverX was used to develop high-throughput and quantitative assays to measure changes in IKZF1, IKZF2 and GSPT1 protein levels in response to compounds. The prolabel tag was derived from the alpha fragment of beta galactosidase and has the following protein sequence: mssnslavvlqrrdwenpgvtqlnrlaahppfaswrnseeartdrpsqqlrslnge. The complementary fragment of beta-galactosidase (from DiscoverX), is added to the prolabel tag to form an active beta galactosidase enzyme whose activity can be precisely measured. In this way, the levels of a fusion protein with the prolabel tag can be quantified in cell lysates.
Lentiviral vectors, based on the Invitrogen pLenti6.2/V5 DEST backbone, were constructed that placed the prolabel tag upstream of IKZF1, IKZF2 or GSPT1 and expressed the fusion protein from a CMV promoter.
To ensure moderate and consistent expression of the prolabel fusion proteins across all cells in the population, stable cell lines were constructed from cells expressing a single copy of the construct. Lentivirus packaged with the constructs was made using the Virapower kit from Invitrogen.
The levels of prolabel tagged fusion proteins in compound treated cell lines were measured as follows:
Day 1, Cells were diluted to 1.0×10^6 cells/ml in normal growth medium. 17.5 μL of cells were plated in each well of a solid white 384 well plate. Plates were incubated overnight in a 37° C. tissue culture incubator.
Day 2, Serial dilutions of compounds were made in 384 well plates from 10 mM stocks. 15 μL of DMSO was added to each well of a 384 well plate. In the first column 15 μL of stock compound was added. The solution was mixed and 15 μL was transferred to the next column. This was repeated until 20 two-fold dilutions were prepared. 2.5 μL of diluted compounds were transferred into 60 μL of cell culture medium in another 384 well plate, and mixed well. 2.5 μL of this mixture was added to the plated cells. The final DMSO concentration was 0.5% and the highest concentration of compound was 50 μM. Plates were incubated overnight (e.g., about 14 h, 18 h, or 24 h) in a 37° C. tissue culture incubator.
Day 3, Plates were removed from the incubator and allowed to equilibrate at rt for 30 minutes. Prolabel substrate (DiscoverX PathHunter Prolabel Detection Kit, User manual: 93-0180) was added as described by the manufacturers protocols. Plates were incubated at rt for three hours and luminescence was read using an Envision reader (Perkin Elmer) Data was analyzed and visualized using the Spotfire software package.

IKZF1 = IKZF1 (Homo sapiens, UniProt Q13422+Q96SW2); assay: Prolabel quantification of IKZF1 protein levels in 293GT cells; conditions: Prolabel assay, read-out: IKZF1 EC50
Sequence of IKZF1 (Q13422 whole entry): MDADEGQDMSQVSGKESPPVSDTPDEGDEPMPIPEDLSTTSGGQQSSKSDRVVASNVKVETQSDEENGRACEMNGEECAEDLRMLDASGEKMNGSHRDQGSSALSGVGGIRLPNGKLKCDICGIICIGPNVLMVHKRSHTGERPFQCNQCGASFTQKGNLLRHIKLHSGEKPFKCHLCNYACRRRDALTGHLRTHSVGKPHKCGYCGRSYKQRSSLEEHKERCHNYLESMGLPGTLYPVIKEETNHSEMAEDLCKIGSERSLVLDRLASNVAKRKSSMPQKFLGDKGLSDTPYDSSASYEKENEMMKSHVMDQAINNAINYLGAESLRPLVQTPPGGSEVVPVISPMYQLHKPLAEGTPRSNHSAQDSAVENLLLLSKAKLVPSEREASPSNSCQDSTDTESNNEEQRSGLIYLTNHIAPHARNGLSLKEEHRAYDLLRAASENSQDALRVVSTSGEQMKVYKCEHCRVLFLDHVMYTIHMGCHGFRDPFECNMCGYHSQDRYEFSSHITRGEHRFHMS
Sequence of IKZF1 (Q96SW2 whole entry): as the sequence (Q96SW2 whole entry, the tested form may be a part) above
Sequence of IKZF1 (Q16531 whole entry partner): as the sequence (Q16531 whole entry partner, the tested form may be a part) above

[1] = 24 h, 10 μM, 24 h, 293GT cells; read-out: IKZF2 % protein reduction at 10 μM, 24 h
[2] = Prolabel assay, 293GT cells; read-out: IKZF2 EC50
[3] = 10 μM, 24 h, 293GT cells; read-out: IKZF2 % protein reduction at 10 μM, 24 h

Sequence of IKZF2 (Q9UKS7 whole entry): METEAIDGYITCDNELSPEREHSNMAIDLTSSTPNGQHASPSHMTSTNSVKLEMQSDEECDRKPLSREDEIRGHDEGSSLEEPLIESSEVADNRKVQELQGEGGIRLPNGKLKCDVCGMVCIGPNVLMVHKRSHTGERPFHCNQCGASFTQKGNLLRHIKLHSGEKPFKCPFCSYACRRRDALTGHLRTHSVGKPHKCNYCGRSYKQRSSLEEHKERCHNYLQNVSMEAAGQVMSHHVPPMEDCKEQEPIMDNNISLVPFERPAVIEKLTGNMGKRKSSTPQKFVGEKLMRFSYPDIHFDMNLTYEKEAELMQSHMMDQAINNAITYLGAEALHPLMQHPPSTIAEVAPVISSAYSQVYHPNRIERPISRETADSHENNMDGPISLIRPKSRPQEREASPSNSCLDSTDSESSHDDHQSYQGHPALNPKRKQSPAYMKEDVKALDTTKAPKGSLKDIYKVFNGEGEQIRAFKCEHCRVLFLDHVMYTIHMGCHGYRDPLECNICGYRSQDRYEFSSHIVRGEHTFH
Sequence of IKZF2 (Q96SW2 whole entry): as the sequence (Q96SW2 whole entry, the tested form may be a part) above
Sequence of IKZF2 (Q16531 whole entry partner): as the sequence (Q16531 whole entry partner, the tested form may be a part) above

| SMILES | inhibition at 10 µM (IKZF2; [1]) [%] | DC50 (IKZF2; [2]) [nM] | DC50 (GSPT1) [nM] | DC50 (IKZF1) [nM] | inhibition at 10 µM (IKZF2; [3]) [%] |
| --- | --- | --- | --- | --- | --- |
| O=C1CCC(N2Cc3cc(C4CCN(Cc5nc(-c6ccccc6)c[nH]5)CC4)ccc3C2=O)C(=O)N1 (stereo not shown) [Compound I-154, 3-(1-oxo-5-(1-((4-phenyl-1H-imidazol-2-yl)methyl)piperidin-4-yl)isoindolin-2-yl)piperidine-2,6-dione] | 85 | 8 | > 30000 | 43 |  |
| O=C1CCC(N2Cc3cc(C4CCNCC4)ccc3C2=O)C(=O)N1 (stereo not shown) [Compound I-155, 3-(1-oxo-5-(piperidin-4-yl)isoindolin-2-yl)piperidine-2,6-dione] | 40 |  | > 50000 | > 50000 |  |
| O=C1CCC(N2Cc3cc(C4CCN(Cc5cc(F)c(O)c(F)c5)CC4)ccc3C2=O)C(=O)N1 (stereo not shown) [Compound I-156, 3-(5-(1-(3,5-difluoro-4-hydroxybenzyl)piperidin-4-yl)-1-oxoisoindolin-2-yl)piperidine-2,6-dione] | 70 | 22 | > 50000 | > 50000 |  |
| Cc1ccccc1CN1CCC(c2ccc3c(c2)CN(C2CCC(=O)NC2=O)C3=O)CC1 (stereo not shown) [Compound I-157, 3-(5-(1-(2-methylbenzyl)piperidin-4-yl)-1-oxoisoindolin-2-yl)piperidine-2,6-dione] | 55 | 56 | > 50000 | > 50000 |  |
| Cc1ccc(CN2CCC(c3ccc4c(c3)CN(C3CCC(=O)NC3=O)C4=O)CC2)cc1 (stereo not shown) [Compound I-158, 3-(5-(1-(4-methylbenzyl)piperidin-4-yl)-1-oxoisoindolin-2-yl)piperidine-2,6-dione] | 55 | 16 | > 50000 | > 50000 |  |
| Cc1cc(C)cc(CN2CCC(c3ccc4c(c3)CN(C3CCC(=O)NC3=O)C4=O)CC2)c1 (stereo not shown) [Compound I-159, 3-(5-(1-(3,5-dimethylbenzyl)piperidin-4-yl)-1-oxoisoindolin-2-yl)piperidine-2,6-dione] | 55 | 19 | > 50000 | > 50000 |  |
| C[C@H]1CC(c2ccc3c(c2)CN(C2CCC(=O)NC2=O)C3=O)CCN1Cc1ccccc1 (stereo partly drawn) [Compound I-160, 3-(5-((2S)-1-benzyl-2-methylpiperidin-4-yl)-1-oxoisoindolin-2-yl)piperidine-2,6-dione] | 50 | 18 | > 50000 | > 50000 |  |
| O=C1CCC(N2Cc3cc(C4CCN(Cc5cccc6c5CCCC6)CC4)ccc3C2=O)C(=O)N1 (stereo not shown) [Compound I-164, 3-(1-oxo-5-(1-((5,6,7,8-tetrahydronaphthalen-1-yl)methyl)piperidin-4-yl)isoindolin-2-yl)piperidine-2,6-dione] | 50 | 18 | > 50000 | > 50000 |  |
| O=C1CCC(N2Cc3cc(C4CCN(CC5CCCc6ccccc65)CC4)ccc3C2=O)C(=O)N1 (stereo not shown) [Compound I-168, 3-(1-oxo-5-(1-((1,2,3,4-tetrahydronaphthalen-1-yl)methyl)piperidin-4-yl)isoindolin-2-yl)piperidine-2,6-dione] | 55 | 14 | > 50000 | > 50000 |  |
| COC(=O)CN1CCC(c2ccc3c(c2)CN(C2CCC(=O)NC2=O)C3=O)CC1 (stereo not shown) [Compound I-169, methyl 2-(4-(2-(2,6-dioxopiperidin-3-yl)-1-oxoisoindolin-5-yl)piperidin-1-yl)acetate] |  |  | > 50000 | > 50000 | 20 |
| O=C1CCC(N2Cc3cc(C4CCN(c5ccccc5)CC4)ccc3C2=O)C(=O)N1 (stereo not shown) [Compound I-170, 3-(1-oxo-5-(1-phenylpiperidin-4-yl)isoindolin-2-yl)piperidine-2,6-dione] |  |  | > 50000 | > 50000 | 5 |
| CC1(C)CC(c2ccc3c(c2)CN(C2CCC(=O)NC2=O)C3=O)CC(C)(C)N1 (stereo not shown) [Compound I-171, 3-(1-oxo-5-(2,2,6,6-tetramethylpiperidin-4-yl)isoindolin-2-yl)piperidine-2,6-dione] | 5 |  | > 50000 | > 50000 |  |
| Cn1nc(CN2CCC(c3ccc4c(c3)CN(C3CCC(=O)NC3=O)C4=O)CC2)c2ccccc21 (stereo not shown) [Compound I-203, 3-(5-(1-((1-methyl-1H-indazol-3-yl)methyl)piperidin-4-yl)-1-oxoisoindolin-2-yl)piperidine-2,6-dione] | 50 | 16 | > 30000 | > 30000 |  |
| CN1CCN(Cc2cc(CN3CCC(c4ccc5c(c4)CN(C4CCC(=O)NC4=O)C5=O)CC3)ccc2O)CC1 (stereo not shown) [Compound I-205, 3-(5-(1-(4-hydroxy-3-((4-methylpiperazin-1-yl)methyl)benzyl)piperidin-4-yl)-1-oxoisoindolin-2-yl)piperidine-2,6-dione] | 70 | 50 | > 30000 | > 30000 |  |
| N#CCc1ccc(CN2CCC(c3ccc4c(c3)CN(C3CCC(=O)NC3=O)C4=O)CC2)cc1 (stereo not shown) [Compound I-206, 2-(4-((4-(2-(2,6-dioxopiperidin-3-yl)-1-oxoisoindolin-5-yl)piperidin-1-yl)methyl)phenyl)acetonitrile] | 80 | 9 | > 30000 | > 30000 |  |
| O=C1CCC(N2Cc3cc(C4CCN(Cc5csc(-c6ccccc6)n5)CC4)ccc3C2=O)C(=O)N1 (stereo not shown) [Compound I-211, 3-(1-oxo-5-(1-((2-phenylthiazol-4-yl)methyl)piperidin-4-yl)isoindolin-2-yl)piperidine-2,6-dione] | 80 | 24 | > 30000 | 39 |  |
| O=C1CCC(N2Cc3cc(C4CCN(Cc5nc6ccsc6c(=O)[nH]5)CC4)ccc3C2=O)C(=O)N1 (stereo not shown) [Compound I-213, 3-(1-oxo-5-(1-((4-oxo-3,4-dihydrothieno[3,2-d]pyrimidin-2-yl)methyl)piperidin-4-yl)isoindolin-2-yl)piperidine-2,6-dione] | 70 | 45 | > 30000 | > 30000 |  |
| O=C1CCC(N2Cc3cc(C4CCN(Cc5ccnc6ccccc56)CC4)ccc3C2=O)C(=O)N1 (stereo not shown) [Compound I-214, 3-(1-oxo-5-(1-(quinolin-4-ylmethyl)piperidin-4-yl)isoindolin-2-yl)piperidine-2,6-dione] | 70 | 19 | > 30000 | > 50000 |  |
| CN(C)S(=O)(=O)c1cccc(CN2CCC(c3ccc4c(c3)CN(C3CCC(=O)NC3=O)C4=O)CC2)c1 (stereo not shown) [Compound I-216, 3-((4-(2-(2,6-dioxopiperidin-3-yl)-1-oxoisoindolin-5-yl)piperidin-1-yl)methyl)-N,N-dimethylbenzenesulfonamide] | 80 | 10 | > 30000 | 220 |  |
| Cc1ccc2sc(-c3ccc(CN4CCC(c5ccc6c(c5)CN(C5CCC(=O)NC5=O)C6=O)CC4)cc3)nc2c1 (stereo not shown) [Compound I-225, 3-(5-(1-(4-(5-methylbenzo[d]thiazo1-2-yl)benzyl)piperidin-4-yl)-1-oxoisoindolin-2-yl)piperidine-2,6-dione] | 65 | 120 | > 30000 | > 30000 |  |
